IC50 data for three compounds are collected here from patent US20040006077A1, “Thiazine and oxazine derivatives as MMP-13 inhibitors” (priority 2002, published 2004).

What all share (assay type): biochemical
One assay addresses T1, MMP-1 (Homo sapiens, UniProt P03956).
T1 sequence (P03956 100-469): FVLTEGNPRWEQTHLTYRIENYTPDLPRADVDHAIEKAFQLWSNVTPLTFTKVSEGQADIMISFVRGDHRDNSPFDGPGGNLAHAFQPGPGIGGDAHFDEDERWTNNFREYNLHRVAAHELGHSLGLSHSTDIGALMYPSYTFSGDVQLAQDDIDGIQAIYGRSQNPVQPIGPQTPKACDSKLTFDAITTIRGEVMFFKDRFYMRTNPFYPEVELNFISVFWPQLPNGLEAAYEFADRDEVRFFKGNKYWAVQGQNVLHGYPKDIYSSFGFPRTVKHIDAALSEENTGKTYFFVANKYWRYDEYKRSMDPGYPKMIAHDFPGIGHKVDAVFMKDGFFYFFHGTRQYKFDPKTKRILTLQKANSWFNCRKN
Nature of the assay: MMP-13 test adapted to MMP-1.

In a further assay the target is MMP-3 (Homo sapiens, UniProt P08254). Put plainly: MMP-13 test adapted to MMP-3. As for the experimental part:
(§1) The inhibitory activity of the compounds of formula (I) according to the invention with respect to matrix metalloprotease-13 is evaluated by testing the ability of the compounds of the invention to inhibit the proteolysis of a peptide substrate with MMP-13.
(§2) The peptide substrate used in the test is the following peptide: Ac-Pro-Leu-Gly-thioester-Leu-Leu-Gly-OEt.
(§3) The inhibitory activity of a compound of formula (I) according to the invention is expressed as the IC50 value, which is the concentration of inhibitor for which an inhibition of 50% of the activity of the matrix metalloprotease under consideration is observed. […]
(§4) The concentrations of inhibitors present in the test samples range from 100 μM to 0.5 nM. The measurement of the proteolysis of the substrate peptide is monitored by measuring the absorbance at 405 nm using a spectrophotometer for reading microplates, at the laboratory temperature, the measurements being carried out continuously for 10 to 15 minutes.
(§5) The IC50 values are calculated from a curve in which the percentage of the catalytic activity relative to the control is represented on the X-axis and the concentration of inhibitor is represented on the Y-axis. […]

Another assay addresses T2, MMP-7 (Homo sapiens, UniProt P09237).
T2 sequence (P09237 95-267): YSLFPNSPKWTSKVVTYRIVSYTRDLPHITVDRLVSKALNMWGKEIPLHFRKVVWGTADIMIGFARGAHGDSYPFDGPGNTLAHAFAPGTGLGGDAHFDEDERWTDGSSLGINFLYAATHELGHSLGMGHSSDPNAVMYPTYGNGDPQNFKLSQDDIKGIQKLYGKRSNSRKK
Nature of the assay: MMP-13 test adapted to MMP-7. As for the experimental part:
as §1, §2, §3, §4, §5

For assay [1], the target named is T3, catalytic domain of human MMP-13 (Homo sapiens, UniProt P45452).
T3 construct: 2.5 nM of the catalytic domain of human MMP-13
Nature of the assay: Inhibition of proteolysis of thioester peptide substrate by MMP-13. As to conditions: peptide substrate Ac-Pro-Leu-Gly-thioester-Leu-Leu-Gly-OEt 100 μM, pH 7.0, absorbance at 405 nm. How it is done:
as §1, §2
The inhibitory activity of a compound of formula (I) according to the invention is expressed as the IC50 value, which is the concentration of inhibitor for which an inhibition of 50% of the activity of the matrix metalloprotease under consideration is observed.
To carry out this test, a reaction medium of 100 μt volume is prepared, containing: 50 mM of HEPES buffer, 10 mM of CaCl2 and 1 mM of 5,5′-dithiobis-(2-nitrobenzoic acid) (DTNB), and 100 μM of substrate, the pH being adjusted to 7.0.
Increasing concentrations of the inhibitory compound present in a 2.0% DMSO solution and 2.5 nM of the catalytic domain of human MMP-13 are added to the test samples.
as §4
The IC50 values are calculated from a curve in which the percentage of the catalytic activity relative to the control is represented on the X-axis and the concentration of inhibitor is represented on the Y-axis.

Each structure is given as a SMILES string.

The term IC50 denotes the concentration that inhibits the measured activity by half.

Chain of MMP-3 (P08254 100-477, species assumed): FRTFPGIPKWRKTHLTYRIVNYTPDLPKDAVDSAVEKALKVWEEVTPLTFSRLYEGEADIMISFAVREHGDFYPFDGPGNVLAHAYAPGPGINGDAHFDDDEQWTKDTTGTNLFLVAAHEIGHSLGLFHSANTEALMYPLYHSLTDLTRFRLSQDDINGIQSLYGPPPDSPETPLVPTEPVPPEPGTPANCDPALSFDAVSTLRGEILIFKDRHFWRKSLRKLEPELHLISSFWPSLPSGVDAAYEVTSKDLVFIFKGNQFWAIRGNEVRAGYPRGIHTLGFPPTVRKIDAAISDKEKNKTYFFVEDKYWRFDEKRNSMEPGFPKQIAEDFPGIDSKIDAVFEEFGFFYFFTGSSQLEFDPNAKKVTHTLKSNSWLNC

With `COc1ccc(CNC(=O)c2ccc3sc(=O)n(Cc4ccccc4)c(=O)c3c2)cc1` [Example 1, 3-Benzyl-2,4-dioxo-3,4-dihydro-2H-benz[e][1,3]thiazine-6-carboxylic acid 4-methoxy benzylamide], the IC50 against MMP-1 amounted to 30 µM; against MMP-3, 18 µM; on MMP-7, 30 µM; in assay [1] it was 0.037 µM.

As for `COc1ccc(CNC(=O)c2ccc3oc(=O)n(Cc4ccc(OC)cc4)c(=O)c3c2)cc1` [Example 2], the 50% inhibitory concentration (IC50) in assay [1] was 0.063 µM.

The compound `O=C(O)c1ccc(Cn2c(=O)sc3ccc(C#CCc4ccccc4)cc3c2=O)cc1` [Example 3, 4-[2,4-Dioxo-6-(3-phenyl-prop-1ynyl)-4H-1,3-benzothiazin-3-ylmethyl]-benzoic acid] registered an IC50 in assay [1] of 0.0012 µM.
